In patent US8377470B2, “Non-gelatin soft capsule system” (R.P. Scherer Technologies, LLC, priority 2004, dated 2013):

Key:
[1] = Film stability with concentrated salt formulations, gelatin film; format: physicochemical; conditions: concentrated suspension/solution in film depression, open exposure
Procedure: (§1) The films were formed and spread over a holding device such that small depressions could be formed in the surface of the film. A depression was formed and subsequently filled with the concentrated suspension of the salt formulation. Simultaneously, two acidic solutions were tested by the same protocol. […] This is well-known in the art to be an extremely aggressive mode of stability testing, resulting in acceleration in the interaction between shell and fill of over 260 times normal rates.

[2] = Film stability with concentrated salt formulations, starch/gelling carrageenan film; format: physicochemical; conditions: concentrated suspension/solution in film depression, open exposure
Procedure: as §1

[3] = sodium or potassium hydroxide required to solubilize acetaminophen at greater than about 27% by weight; cited from earlier work

| Structure (SMILES) | Test Result After 24 Hours at 40° C.-75% RH, Gelatin film [1] | Test Result After 24 Hours at 40° C.-75% RH, Starch/Gelling Carrageenan film [2] | pH of the PEG solution [3] |
| --- | --- | --- | --- |
| CC(=O)O.N [Ammonium acetate] | Fail | Pass |  |
| O=C(O)CC(O)(CC(=O)O)C(=O)O [Citric acid] | Fail | Fail |  |
| O=C([O-])c1ccccc1C(=O)O.[K+] [Potassium Hydrogen Phthalate] | Fail | Pass |  |
| O=P([O-])([O-])O.[K+].[K+] [Potassium PO4-(dibasic)] | Fail | Pass |  |
| CC(=O)[O-].[K+] [Potassium acetate] | Fail | Pass |  |
| O=C([O-])CC(O)(CC(=O)[O-])C(=O)[O-].[K+].[K+].[K+] [Potassium citrate] | Fail | Pass |  |
| O=P([O-])([O-])[O-].[Na+].[Na+].[Na+] [Sodium PO4-(tribasic)] | Fail | Pass |  |
| O=C(O)C(O)C(O)C(=O)O (centres unmarked) [Tartaric acid] | Fail | Fail |  |
| CC(=O)Nc1ccc(O)cc1 [acetaminophen, N-acetyl-p-aminophenol] |  |  | greater than 12 |
